Measured values taken from patent publication US7871987B2, “Ester derivatives of ascorbic and 2-keto acid saccharides” (Dow Corning Corporation, priority 2004, dated 2011).
“And” between values parts separate entries of the source, which are not always exact repeats. Identical values can stand only once.

Assays:
[1] = test system: Melanoderm tissue model MEL 300 A; test: Viability by MTT assay (MatTek MTT ET-50 protocol); assay type: cell-based, human; conditions: for MTT reading (individual readings): listed as DP2/DMI
Description: (§1) This example illustrates cell viability properties and efficacy of skin lightening formulations according to the present invention. For purposes of these examples, DP2 and DP15 both refer to a bis-ascorbyl ester of a (10-carboxydecyl)-terminated dimethylsiloxane, but with the former having two degrees of polymerization, and the latter having an average of 15 degrees of polymerization (15+/−5). In particular, three formulations according to the present invention, water (a negative control), 1% kojic acid (Sigma, Wis.) in water (positive control), and 2.3% ascorbyl palmitate in DMI (dimethyl isosorbide from Uniqema Americas, representative of a currently commercially available skin-lightening compound), were assayed and compared for cell viability and skin lightening efficacy (see Table 4). The assays were carried out using Melanoderm tissue model MEL 300 A cell line (MelanoDerm™ tissue model available from MatTek, Ashland, Mass.). This melanoderm model consists of normal, human-derived epidermal keratinocytes and melanocytes that have been co-cultured to form a multilayer, highly differentiated model of human epidermis.
Duplicate samples of each of the formulations in Table 4 were dosed and tested for 48 hours for cell viability by MTT assay (MatTek MTT ET-50 protocol). The volume of water and kojic acid used was 25 ul.

[2] = test system: Melanoderm tissue model MEL 300 A; test: Melanin content / skin lightening assay in MelanoDerm tissue model; assay type: cell-based, human; conditions: for Melanin concentration vs. water: Day 10, after 6 applications; for Melanin Concentration at Day 10 (Avg.): after 6 applications, 10 μL in DMI (kojic acid 25 μL, 1% in water)
Description: as §1
Table 6 (see FIG. 4(a)) sets forth the […] after 6 applications of each formulation as indicated. Melanin concentration (ug/ml) was lower (p<0.05) in the positive control (kojic acid) and in Ascorbyl palmitate, DP2, and DP2+ascorbic acid. Table 7 (see FIG. 4(b) also sets forth the melanocyte concentration on Day 10, after six applications of the test formulations. Melanin concentration (ug/ml) was higher (p<0.05) in DP2, with no difference from DP2+ascorbic acid or DPI 5. However, p value for DP15 had high variability and statistical difference was borderline (p=0.06)

[3] = Dispersibility in carriers (caprylic/capric triglyceride, cyclopentasiloxane, deionized water); assay type: physicochemical
Experimental: a) Approximately 7.2 g of a sample of a material of the present invention comprising an undecyl ascorbate group on one end of the short chain dimethylsiloxane (Formula=Si(CH3)3-[Si(CH3)2]8—[CH2]10—COO-Ascorbate), with a calculated molecular weight of 1082) was weighed into a glass vial. Liponate CG (INCI name: caprylic/capric triglyceride) was added to the vial to bring the net weight to 20 g. The vial was warmed in a water bath set at 50° C. […] A sample of ascorbyl palmitate obtained from DSM was also tested for dispersibility in Liponate CG. Several concentrations were tested. The lowest concentration tested was made by weighing approximately 2.3 g of ascorbyl palmitate into a glass vial and then adding caprylic/capric triglyceride to bring the net weight to 20 g. […] The silicone was added to the vial to bring the net weight to 20 g. […] This mixture thickened upon cooling to room temperature. To determine if the mixture was a stable dispersion or an unstable suspension, the mixture was centrifuged in a bench top laboratory centrifuge at 3000 rpm for approximately 30 minutes. […] The amount of white material was small (much less than the amount of siloxane undecyl ascorbate that was used) and it was later determined that the white material was most likely unreacted ascorbic acid. A sample of ascorbyl palmitate obtained from DSM was tested for dispersibility in Dow Corning® 245 Fluid. Several concentrations were tested. The lowest concentration tested was made by weighing approximately 2.3 g of ascorbyl palmitate into a glass vial and then adding Dow Corning® 245 Fluid to bring the net weight to 20 g. […] Deionized water was added to bring the total net weight to 3.5 g. The vial was placed in a water bath set at 60° C. and the disiloxane material began to disperse after a few minutes. The vial was pulled out of the water bath periodically over the next 10-15 minutes. […] Upon cooling the vial was examined to determine if all of the test material had been dispersed. It was difficult to tell due to the hazy appearance of the sample. The experiment was repeated with approximately 0.17 of the disiloxane diluted to 3.5 g with deionized water. […] Ascorbyl palmitate obtained from DSM was tested for dispersibility in deionized water.

[4] = first duplicate sample, 10 uL dose, 48 hours
[5] = second duplicate sample, 10 uL dose, 48 hours
[6] = approximately 2.3 g brought to 20 g (lowest concentration), 50° C. to 90° C. for 20-30 minutes

Compound: C[Si](C)(CCCCCCCCCCC(=O)OCC(O)C1OC(=O)C(O)=C1O)O[Si](C)(C)CCCCCCCCCCC(=O)OCC(O)C1OC(=O)C(O)=C1O (stereo not shown) [DP2, bis-ascorbyl ester of a (10-carboxydecyl)-terminated dimethylsiloxane]
- cytotoxicity ([1]; 10 uL dose, in DMI): does not cause cytotoxicity
- Total average (MTT reading) ([1]; both duplicate samples, 10 uL dose, 48 hours): 1.514
- % Viability (total average) ([1]; both duplicate samples, vs water, 10 uL dose, 48 hours): 100.31%
- Average (MTT reading) [1, 4]: 1.417
- MTT reading (individual readings) [1, 4]: 1.433 and 1.401
- % Viability ([1]; first duplicate sample, vs water, 10 uL dose, 48 hours): 91.24%
- cell viability ([1]; in DMI): > 90%
- Average (MTT reading) [1, 5]: 1.611
- MTT reading (individual readings) [1, 5]: 1.619 and 1.603
- % Viability ([1]; second duplicate sample, vs water, 10 uL dose, 48 hours): 109.93%
- Melanin concentration vs. water ([2]; p<0.05): lower
- Melanin concentration vs. ascorbyl palmitate ([2]; Day 10, after six applications, p<0.05): higher
- Melanin Concentration at Day 10 (Avg.) [2]: 44.40 µg/mL
- dispersibility in deionized water ([3]; approximately 0.17 diluted to 3.5 g, warmed in water bath): thinner, less hazy dispersion
- dispersibility in deionized water ([3]; approximately 0.35 g brought to 3.5 g, water bath 60° C.): thick hazy dispersion
- stability of dispersions in deionized water ([3]; both dispersions, no sign of separation or settling): stable for several weeks

Compound: O=c1cc(CO)occ1O [Kojic Acid, kojic acid]
- Melanin concentration vs. water ([2]; p<0.05): lower
- Melanin Concentration at Day 10 (Avg.) [2]: 25.20 µg/mL

Compound: CCCCCCCCCCCCCCCC(=O)OC[C@H](O)[C@H]1OC(=O)C(O)=C1O [Ascorbyl Palmitate, Ascorbyl palmitate, reference compound]
- % Viability (total average) ([1]; human, 48 h, 2.3 %): 96.04%
- Total average (MTT reading) ([1]; human, 48 h, 2.3 %): 1.4495
- Melanin concentration vs. water ([2]; p<0.05): lower
- Melanin Concentration at Day 10 (Avg.) [2]: 34.14 µg/mL
- dispersibility in Dow Corning 245 Fluid (cyclopentasiloxane) [3, 6]: would not disperse
- dispersibility in Liponate CG (caprylic/capric triglyceride) [3, 6]: would not disperse
- dispersibility in deionized water ([3]; concentrations comparable to those tested for the disiloxane test material): not dispersible
